Source: PubChem BioAssay (NCI)
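Test compounds were applied to cells in 96-well plates for 48 hours at 5 doses. Here, GI50 denotes the concentration required for 50% inhibition of growth. TGI: concentration producing complete growth inhibition.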

Assays:
Experiment in all cases: inhibition of tumour cell growth, NCI panel, 48 h
[1] = tested on: KM12 colon
[2] = tested on: NCI-H226 lung
[3] = tested on: LOX IMVI melanoma
[4] = tested on: HOP-92 NSCLC
[5] = tested on: SK-MEL-28 melanoma
[6] = tested on: MCF7 breast
[7] = tested on: EKVX NSCLC
[8] = tested on: CAKI-1 renal
[9] = tested on: PC-3 prostate
[10] = tested on: 786-0 renal
[11] = tested on: NCI/ADR-RES ovarian
[12] = tested on: CCRF-CEM leukemia
[13] = tested on: T-47D breast
[14] = tested on: NCI-H23 lung
[15] = tested on: SF-268 CNS
[16] = tested on: SNB-19 CNS
[17] = tested on: U251 CNS
[18] = tested on: SF-295 CNS
[19] = tested on: HT29 colon
[20] = tested on: SK-MEL-2 melanoma
[21] = tested on: RXF 393 renal
[22] = tested on: MDA-MB-231 breast
[23] = tested on: OVCAR-3 ovarian
[24] = tested on: UACC-62 melanoma
[25] = tested on: HOP-62 NSCLC
[26] = tested on: COLO 205 colon
[27] = tested on: OVCAR-4 ovarian
[28] = tested on: UACC-257 melanoma
[29] = tested on: MALME-3M melanoma
[30] = tested on: MDA-MB-435
[31] = tested on: UO-31 renal
[32] = tested on: TK-10 renal
[33] = tested on: HL-60(TB) leukemia
[34] = tested on: SW-620 colon
[35] = tested on: OVCAR-8 ovarian
[36] = tested on: BT-549 breast
[37] = tested on: RPMI-8226 leukemia
[38] = tested on: IGROV1 ovarian
[39] = tested on: SK-MEL-5 melanoma
[40] = tested on: HCT-116 colon
[41] = tested on: HCT-15 colon
[42] = tested on: OVCAR-5 ovarian
[43] = tested on: ACHN renal
[44] = tested on: NCI-H460 lung
[45] = tested on: SK-OV-3 ovarian
[46] = tested on: M14 melanoma
[47] = tested on: MOLT-4 leukemia
[48] = tested on: NCI-H522 lung
[49] = tested on: A549 NSCLC
[50] = tested on: HS 578T breast
[51] = tested on: HCC-2998 colon
[52] = tested on: A498 renal
[53] = tested on: SN12C renal
[54] = tested on: DU-145 prostate
[55] = tested on: K-562 leukemia
[56] = tested on: SF-539 CNS
[57] = tested on: SR leukemia

`COc1ccc2[nH]c(Cl)c(/C=C3/C(=O)N(C)c4ccccc43)c2c1` showed a GI50 [1] of 16.9 µM, a TGI [1] of 34.7 µM and a GI50 [2] of 29.4 µM. For the same molecule, the TGI [2] was greater than 100 µM, the GI50 [3] was greater than 100 µM and the TGI [3] was greater than 100 µM. The GI50 [4] was 91.3 µM, the TGI [4] was greater than 100 µM and the GI50 [5] was greater than 100 µM. It also gave a TGI [5] greater than 100 µM, a GI50 [6] greater than 100 µM and a TGI [6] greater than 100 µM. For the same molecule, the GI50 [7] was greater than 100 µM, the TGI [7] was greater than 100 µM and the GI50 [8] was greater than 100 µM. It also gave a TGI [8] greater than 100 µM, a GI50 [9] greater than 100 µM and a TGI [9] greater than 100 µM. The GI50 [10] was greater than 100 µM, the TGI [10] was greater than 100 µM and the GI50 [11] was greater than 100 µM. It also gave a TGI [11] greater than 100 µM, a GI50 [12] of 43.6 µM and a TGI [12] greater than 100 µM. It also gave a GI50 [13] of 13.1 µM, a TGI [13] of 63.4 µM and a GI50 [14] greater than 100 µM. For the same molecule, the TGI [14] was greater than 100 µM, the GI50 [15] was greater than 100 µM and the TGI [15] was greater than 100 µM. It also gave a GI50 [16] of 48.9 µM, a TGI [16] greater than 100 µM and a GI50 [17] greater than 100 µM. For the same molecule, the TGI [17] was greater than 100 µM, the GI50 [18] was greater than 100 µM and the TGI [18] was greater than 100 µM. The GI50 [19] was greater than 100 µM, the TGI [19] was greater than 100 µM and the GI50 [20] was greater than 100 µM. The TGI [20] was greater than 100 µM, the GI50 [21] was greater than 100 µM and the TGI [21] was greater than 100 µM. It also gave a GI50 [22] of 36.5 µM, a TGI [22] greater than 100 µM and a GI50 [23] of 55.1 µM. The TGI [23] was greater than 100 µM, the GI50 [24] was 71 µM and the TGI [24] was greater than 100 µM. For the same molecule, the GI50 [25] was 92 µM, the TGI [25] was greater than 100 µM and the GI50 [26] was 21.7 µM. For the same molecule, the TGI [26] was greater than 100 µM, the GI50 [27] was greater than 100 µM and the TGI [27] was greater than 100 µM. The GI50 [28] was greater than 100 µM, the TGI [28] was greater than 100 µM and the GI50 [29] was greater than 100 µM. It also gave a TGI [29] greater than 100 µM, a GI50 [30] greater than 100 µM and a TGI [30] greater than 100 µM. For the same molecule, the GI50 [31] was greater than 100 µM, the TGI [31] was greater than 100 µM and the GI50 [32] was greater than 100 µM. It also gave a TGI [32] greater than 100 µM, a GI50 [33] greater than 100 µM and a TGI [33] greater than 100 µM. The GI50 [34] was 96.6 µM, the TGI [34] was greater than 100 µM and the GI50 [35] was greater than 100 µM. The TGI [35] was greater than 100 µM, the GI50 [36] was greater than 100 µM and the TGI [36] was greater than 100 µM. For the same molecule, the GI50 [37] was greater than 100 µM, the TGI [37] was greater than 100 µM and the GI50 [38] was greater than 100 µM. It also gave a TGI [38] greater than 100 µM, a GI50 [39] of 69.3 µM and a TGI [39] greater than 100 µM. For the same molecule, the GI50 [40] was 42.5 µM, the TGI [40] was greater than 100 µM and the GI50 [41] was greater than 100 µM. For the same molecule, the TGI [41] was greater than 100 µM, the GI50 [42] was greater than 100 µM and the TGI [42] was greater than 100 µM. The GI50 [43] was greater than 100 µM, the TGI [43] was greater than 100 µM and the GI50 [44] was greater than 100 µM. For the same molecule, the TGI [44] was greater than 100 µM, the GI50 [45] was 77.4 µM and the TGI [45] was greater than 100 µM. It also gave a GI50 [46] greater than 100 µM, a TGI [46] greater than 100 µM and a GI50 [47] of 79.1 µM. For the same molecule, the TGI [47] was greater than 100 µM, the GI50 [48] was greater than 100 µM and the TGI [48] was greater than 100 µM. The GI50 [49] was greater than 100 µM, the TGI [49] was greater than 100 µM and the GI50 [50] was greater than 100 µM. The TGI [50] was greater than 100 µM.
Molecule `CCSc1nc(N=Cc2cccs2)c2cn[nH]c2n1` has a GI50 [1] of 3.31 µM, a TGI [1] of 16.1 µM and a GI50 [2] of 0.299 µM. For the same molecule, the TGI [2] was 43.2 µM, the GI50 [3] was 7.89 µM and the TGI [3] was greater than 100 µM. The GI50 [5] was 22.3 µM, the TGI [5] was greater than 100 µM and the GI50 [6] was 3.5 µM. The TGI [6] was 19.2 µM, the GI50 [7] was 67.8 µM and the TGI [7] was greater than 100 µM. The GI50 [8] was 18 µM, the TGI [8] was greater than 100 µM and the GI50 [9] was 20.7 µM. The TGI [9] was greater than 100 µM, the GI50 [10] was 33.4 µM and the TGI [10] was greater than 100 µM. The GI50 [11] was 15.7 µM, the TGI [11] was 61.4 µM and the GI50 [51] was 2.87 µM. For the same molecule, the TGI [51] was 11.3 µM, the GI50 [13] was 23.6 µM and the TGI [13] was 95 µM. For the same molecule, the GI50 [14] was 11.2 µM, the TGI [14] was 23.2 µM and the GI50 [52] was 10.9 µM. The TGI [52] was 38.1 µM, the GI50 [15] was 6.49 µM and the TGI [15] was greater than 100 µM. The GI50 [16] was 45.2 µM, the TGI [16] was greater than 100 µM and the GI50 [17] was 69.4 µM. The TGI [17] was greater than 100 µM, the GI50 [53] was 61.9 µM and the TGI [53] was greater than 100 µM. It also gave a GI50 [18] of 19.1 µM, a TGI [18] greater than 100 µM and a GI50 [19] of 16.7 µM. The TGI [19] was 80.9 µM, the GI50 [20] was 26.2 µM and the TGI [20] was greater than 100 µM. For the same molecule, the GI50 [21] was 2.85 µM, the TGI [21] was 7.72 µM and the GI50 [22] was 4.51 µM. The TGI [22] was greater than 100 µM, the GI50 [23] was 10.4 µM and the TGI [23] was 53.9 µM. For the same molecule, the GI50 [24] was 8.39 µM, the TGI [24] was 23.1 µM and the GI50 [25] was 53.8 µM. It also gave a TGI [25] greater than 100 µM, a GI50 [26] of 10.9 µM and a TGI [26] of 24.9 µM. It also gave a GI50 [27] of 17.8 µM, a TGI [27] of 67.4 µM and a GI50 [28] of 61 µM. For the same molecule, the TGI [28] was greater than 100 µM, the GI50 [54] was 15.1 µM and the TGI [54] was greater than 100 µM. It also gave a GI50 [30] of 10.8 µM, a TGI [30] of 57.2 µM and a GI50 [31] of 53.5 µM. For the same molecule, the TGI [31] was greater than 100 µM, the GI50 [32] was 9.47 µM and the TGI [32] was 41.1 µM. It also gave a GI50 [34] of 19.7 µM, a TGI [34] greater than 100 µM and a GI50 [35] of 55.9 µM. For the same molecule, the TGI [35] was greater than 100 µM, the GI50 [36] was greater than 100 µM and the TGI [36] was greater than 100 µM. For the same molecule, the GI50 [37] was 3.19 µM, the TGI [37] was greater than 100 µM and the GI50 [38] was 23.6 µM. It also gave a TGI [38] greater than 100 µM, a GI50 [39] of 7.35 µM and a TGI [39] of 38.1 µM. It also gave a GI50 [55] of 26.1 µM, a TGI [55] greater than 100 µM and a GI50 [40] of 6.49 µM. The TGI [40] was greater than 100 µM, the GI50 [41] was 24.6 µM and the TGI [41] was greater than 100 µM. The GI50 [56] was 25.3 µM, the TGI [56] was greater than 100 µM and the GI50 [42] was 14.2 µM. The TGI [42] was 50.9 µM, the GI50 [57] was 2.1 µM and the TGI [57] was 7.21 µM. For the same molecule, the GI50 [43] was 16.2 µM, the TGI [43] was greater than 100 µM and the GI50 [44] was 14.5 µM. It also gave a TGI [44] greater than 100 µM, a GI50 [45] of 56 µM and a TGI [45] greater than 100 µM. For the same molecule, the GI50 [46] was 14.8 µM, the TGI [46] was 28 µM and the GI50 [47] was 35.8 µM. For the same molecule, the TGI [47] was greater than 100 µM, the GI50 [48] was 48.5 µM and the TGI [48] was greater than 100 µM. It also gave a GI50 [49] of 29.2 µM, a TGI [49] greater than 100 µM and a GI50 [50] of 16.2 µM. It also gave a TGI [50] greater than 100 µM.
